Measured values taken from patent publication US20200361871A1 (Enterprise Therapeutics Ltd., priority 2018, published 2020).
Entries after “also recorded” stand apart in the source; their conditions may differ.

What was measured:
[1] = Storage of forms of Compound 36 at 40° C./75% RH in open vials, XRPD; assay type: physicochemical; conditions: open vial, 7 days
Description: Form A was stored at 40° C./75% RH, in an open vial. […] Therefore, Form A is stable to exposure to elevated temperature and humidity for up to 2 weeks and no evidence of a hydrated form was observed.
One sample of each of the new forms (Forms B, C, D, E, E+extra peaks, F, G and H) was analysed by ^1H NMR, TGA, DSC and stored at 40° C./75% RH. Results are summarised in Table E with Form A for comparison.

[2] = target: human TMEM16A (TMEM16Aabc variant) (Homo sapiens, UniProt Q5XXA6, DEL476-501, form not given); assay: Automated whole-cell patch clamp (Qpatch) TMEM16A potentiator assay in FRT cells stably expressing human TMEM16A; assay type: cell-based; conditions: for % Potentiation @ 3.33 μM Avg: 3.33 μM solution of test compound, percentage increase of baseline TMEM16A current; for EC50: calculated EC50, Qpatch TMEM16A current at +70 mV
How it was run: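 Potentiation was read as the rise in peak +70 mV current over baseline (%), from cumulative 5-min additions of compound. Recordings used whole-cell automated patch of FRT cells stably carrying human TMEM16Aabc, with pipette Ca2+ buffered to give ~20% maximal current. EC50 and efficacy came from concentration-response fits.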

human TMEM16A (TMEM16Aabc variant), sequence (Q5XXA6 with tags, fused parts or gaps DEL476-501): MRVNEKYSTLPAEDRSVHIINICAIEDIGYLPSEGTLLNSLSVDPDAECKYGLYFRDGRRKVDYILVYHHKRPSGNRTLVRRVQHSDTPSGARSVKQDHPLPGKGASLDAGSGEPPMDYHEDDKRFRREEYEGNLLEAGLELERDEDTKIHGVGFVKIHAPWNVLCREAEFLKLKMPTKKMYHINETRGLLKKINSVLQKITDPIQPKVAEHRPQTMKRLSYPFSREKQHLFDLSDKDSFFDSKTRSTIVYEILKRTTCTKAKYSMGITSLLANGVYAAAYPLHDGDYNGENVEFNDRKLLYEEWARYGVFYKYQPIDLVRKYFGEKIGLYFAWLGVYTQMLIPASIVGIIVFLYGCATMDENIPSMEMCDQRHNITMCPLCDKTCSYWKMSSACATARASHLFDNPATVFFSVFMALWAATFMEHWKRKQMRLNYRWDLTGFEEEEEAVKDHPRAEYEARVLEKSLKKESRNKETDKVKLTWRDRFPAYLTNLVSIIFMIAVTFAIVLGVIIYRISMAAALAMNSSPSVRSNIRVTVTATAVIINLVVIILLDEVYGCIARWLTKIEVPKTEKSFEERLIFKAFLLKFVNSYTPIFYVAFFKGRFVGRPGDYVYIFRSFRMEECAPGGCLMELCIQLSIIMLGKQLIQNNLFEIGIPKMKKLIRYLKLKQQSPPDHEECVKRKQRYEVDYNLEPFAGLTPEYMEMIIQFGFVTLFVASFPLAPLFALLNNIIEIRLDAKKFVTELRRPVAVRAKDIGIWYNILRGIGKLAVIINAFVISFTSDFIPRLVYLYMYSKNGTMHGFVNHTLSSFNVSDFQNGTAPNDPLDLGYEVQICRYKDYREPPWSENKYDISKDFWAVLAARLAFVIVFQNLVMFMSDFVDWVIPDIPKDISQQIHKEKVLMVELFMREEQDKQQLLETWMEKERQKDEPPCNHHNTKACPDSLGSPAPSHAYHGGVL

C#CC(C)(C)NC(=O)c1cc(NC(=O)Cc2cc(Cl)ccc2O)ccn1 [Compound 36 Form B, 4-[[2-(5-Chloro-2-hydroxy-phenyl)acetyl]amino]-N-(1,1-dimethylprop-2-ynyl)pyridine-2-carboxamide]
Storage at 40° C./75% RH (change of form by XRPD) [1]: stable; also recorded: No change (7 days)

C#CC(C)(C)NC(=O)c1cc(NC(=O)Cc2cc(Cl)ccc2O)ccn1 [Compound 36 Form C, 4-[[2-(5-Chloro-2-hydroxy-phenyl)acetyl]amino]-N-(1,1-dimethylprop-2-ynyl)pyridine-2-carboxamide]
Storage at 40° C./75% RH (change of form by XRPD) [1]: Changed to mainly

C#CC(C)(C)NC(=O)c1cc(NC(=O)Cc2cc(Cl)ccc2O)ccn1 [Compound 36 Form D, 4-[[2-(5-Chloro-2-hydroxy-phenyl)acetyl]amino]-N-(1,1-dimethylprop-2-ynyl)pyridine-2-carboxamide]
Storage at 40° C./75% RH (change of form by XRPD) [1]: converted to a mixture of Form A and Form B; also recorded: Changed to mainly

C#CC(C)(C)NC(=O)c1cc(NC(=O)Cc2cc(Cl)ccc2O)ccn1 [Compound 36 Form E, 4-[[2-(5-Chloro-2-hydroxy-phenyl)acetyl]amino]-N-(1,1-dimethylprop-2-ynyl)pyridine-2-carboxamide]
Storage at 40° C./75% RH (change of form by XRPD) [1]: Changed to mainly

C#CC(C)(C)NC(=O)c1cc(NC(=O)Cc2cc(Cl)ccc2O)ccn1 [Compound 36 Form F, 4-[[2-(5-Chloro-2-hydroxy-phenyl)acetyl]amino]-N-(1,1-dimethylprop-2-ynyl)pyridine-2-carboxamide]
Storage at 40° C./75% RH (change of form by XRPD) [1]: stable; also recorded: No change (7

C#CC(C)(C)NC(=O)c1cc(NC(=O)Cc2cc(Cl)ccc2O)ccn1 [Compound 36 Form G, 4-[[2-(5-Chloro-2-hydroxy-phenyl)acetyl]amino]-N-(1,1-dimethylprop-2-ynyl)pyridine-2-carboxamide]
Storage at 40° C./75% RH (change of form by XRPD) [1]: Changed to Form A

CC(C)(C)NC(=O)c1cc(NC(=O)Cc2ccc(C(C)(C)C)cc2O)ccn1 [Example 90, N-tert-Butyl-4-[[2-(4-tert-butyl-2-hydroxy-phenyl)acetyl]amino]pyridine-2-carboxamide]
% Potentiation @ 3.33 μM Avg [2]: 219%
EC50 [2]: 120 nM

N#CC1(NC(=O)c2cc(NC(=O)Cc3ccc(Cl)c(O)c3)ccn2)CCOCC1 [Example 92, 4-[[2-(4-Chloro-3-hydroxy-phenyl)acetyl]amino]-N-(4-cyanotetrahydropyran-4-yl)pyridine-2-carboxamide]
% Potentiation @ 3.33 μM Avg [2]: 133%
EC50 [2]: 110 nM

CC(C)(C#N)NC(=O)c1cc(NC(=O)Cc2ccc(Cl)c(O)c2)ccn1 [Example 92.1, 4-[[2-(4-Chloro-3-hydroxy-phenyl)acetyl]amino]-N-(1-cyano-1-methyl-ethyl)pyridine-2-carboxamide]
% Potentiation @ 3.33 μM Avg [2]: 151%
EC50 [2]: 140 nM

C#CC(C)(C)NC(=O)c1cc(NC(=O)Cc2ccc(Cl)c(O)c2)ccn1 [Example 92.2, 4-[[2-(4-Chloro-3-hydroxy-phenyl)acetyl]amino]-N-(1,1-dimethylprop-2-ynyl)pyridine-2-carboxamide]
% Potentiation @ 3.33 μM Avg [2]: 71%
EC50 [2]: 10 nM

CC(C)(C)c1ccc(CC(=O)Nc2ccnc(C(=O)N[C@H]3CCCC[C@@H]3O)c2)cc1O [Example 93.1, 4-[2-(4-tert-butyl-3-hydroxyphenyl)acetamido]-N-[(1S,2S)-2-hydroxycyclohexyl]pyridine-2-carboxamide]
% Potentiation @ 3.33 μM Avg [2]: 207%
EC50 [2]: 50 nM

CC(C)(C)c1ccc(CC(=O)Nc2ccnc(C(=O)N[C@H]3CCC[C@@H]3O)c2)cc1O [Example 93.2, 4-[2-(4-tert-butyl-3-hydroxyphenyl)acetamido]-N-[(1S,2S)-2-hydroxycyclopentyl]pyridine-2-carboxamide]
% Potentiation @ 3.33 μM Avg [2]: 220%
EC50 [2]: 40 nM

CC(C)(C)c1ccc(CC(=O)Nc2ccnc(C(=O)NC3(C#N)CCOCC3)c2)cc1O [Example 93.3, 4-[[2-(4-tert-Butyl-3-hydroxy-phenyl)acetyl]amino]-N-(4-cyanotetrahydropyran-4-yl)pyridine-2-carboxamide]
% Potentiation @ 3.33 μM Avg [2]: 130%
EC50 [2]: 60 nM

CC(C)(C#N)NC(=O)c1cc(NC(=O)Cc2ccc(C(C)(C)C)c(O)c2)ccn1 [Example 93.4, 4-[[2-(4-tert-Butyl-3-hydroxy-phenyl)acetyl]amino]-N-(1-cyano-1-methyl-ethyl)pyridine-2-carboxamide]
% Potentiation @ 3.33 μM Avg [2]: 476%
EC50 [2]: 70 nM

C#CC(C)(C)NC(=O)c1cc(NC(=O)Cc2ccc(C(C)(C)C)c(O)c2)ccn1 [Example 93.5, 4-[[2-(4-tert-Butyl-3-hydroxy-phenyl)acetyl]amino]-N-(1,1-dimethylprop-2-ynyl)pyridine-2-carboxamide]
% Potentiation @ 3.33 μM Avg [2]: 136%
EC50 [2]: 20 nM

CC(C)(NC(=O)c1cc(NC(=O)Cc2cc(Cl)ccc2O)ccn1)c1ccccc1 [Example 94, 4-[[2-(5-Chloro-2-hydroxy-phenyl)acetyl]amino]-N-(1-methyl-1-phenyl-ethyl) pyridine-2-carboxamide]
% Potentiation @ 3.33 μM Avg [2]: 516%
EC50 [2]: 340 nM
